The data set relates to human anaplastic large-cell lymphoma (ALCL) tumor model. The data set is described as follows: Antitumor activity in vivo, ALCL tumors grafted subcutaneously in mice, oral daily dosing. The following applies: mice with subcutaneous ALCL tumors, daily schedule, animals weighed. On the procedure: Pharmacological Activity In Vivo
The compounds were administered orally at various doses on a daily schedule to mice with ALCL tumors grafted subcutaneously. Tumor size was measured regularly during the study and the animals were weighed several times per week in order to identify any adverse effects. A compound is declared active if it induces inhibition of ALCL tumor growth by at least 58%.

This is an account of results in US8883821B2, “Substituted pyrazolo[3,4-b]pyridines as medicaments” (Pierre Fabre Medicament, priority 2011, dated 2014).

As for `CN1CCN(c2ccc(C(=O)Nc3n[nH]c4ncc(Sc5cc(F)cc(F)c5)cc34)c(NC3CCOCC3)c2)CC1` [Example 30, N-(5-(3,5-difluorophenylthio)-1-H-pyrazolo[3,4-b]pyridine-3-yl)-4-(4-methylpiperazine-1-yl)-2-(tetrahydro-2H-pyran-4-ylamino)benzamide], the “adverse effects / tolerance in vivo” value is reported as “no adverse effects”.
For the compound `CN1CCN(c2ccc(C(=O)Nc3n[nH]c4ncc(Cc5cc(F)cc(F)c5)cc34)c(NC3CCOCC3)c2)CC1` [Example 30-9, N-(5-(3,5-difluorobenzyl)-1H-pyrazolo[3,4-b]pyridin-3-yl)-4-(4-methylpiperazin-1-yl)-2-(tetrahydro-2H-pyran-4-ylamino)benzamide], the “adverse effects / tolerance in vivo” value is given as “no adverse effects”.
